Measurements from patent publication US20070049593A1 (priority 2004, published 2007).
Where a name gives a salt, the structure may show the parent alone.

Molecular target: T1, HCV polymerase (Hepatitis C virus genotype 1b, UniProt P26663)
T1 construct: a region encoding NS5B (J Virol 1991 March, 65(3), 1105-13, 544 amino acids after deletion of 47 amino acids on the C-terminal); 6xHis (C); made in house; host or cells: Escherichia coli
Test: biochemical
Parameters: species or system HCV BK strain
In short: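 His-tagged NS5B (BK strain, 47-aa C-terminal deletion, E. coli-expressed) at 0.5 μg/ml copied 5 μg/ml run-off RNA bearing the HCV 3′ UTR with 2 μM UTP plus [3H]UTP, 50 μM ATP/GTP, in pH 7.5 Tris with 5 mM MgCl2, 25 °C, 90 min. TCA-precipitated RNA was counted and IC50 calculated.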

T1 sequence (P26663 2420-2963): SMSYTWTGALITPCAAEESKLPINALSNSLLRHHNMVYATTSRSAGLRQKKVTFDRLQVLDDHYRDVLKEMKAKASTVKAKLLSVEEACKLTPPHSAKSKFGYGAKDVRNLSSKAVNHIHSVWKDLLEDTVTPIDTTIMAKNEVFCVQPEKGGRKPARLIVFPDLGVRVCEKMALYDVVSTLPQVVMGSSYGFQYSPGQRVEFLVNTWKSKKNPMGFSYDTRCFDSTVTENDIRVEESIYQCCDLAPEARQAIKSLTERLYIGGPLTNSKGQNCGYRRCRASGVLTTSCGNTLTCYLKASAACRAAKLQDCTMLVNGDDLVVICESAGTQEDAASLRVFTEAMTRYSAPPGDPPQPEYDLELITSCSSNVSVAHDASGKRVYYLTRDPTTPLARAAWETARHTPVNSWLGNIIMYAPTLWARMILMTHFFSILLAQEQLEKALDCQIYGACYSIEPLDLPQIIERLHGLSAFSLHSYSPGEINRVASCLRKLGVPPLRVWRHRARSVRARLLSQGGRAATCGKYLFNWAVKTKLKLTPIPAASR

`CC1CCCCN1CCN1CCn2c(c(C3CCCCC3)c3ccc(C(=O)O)cc32)-c2ccc(Cl)cc21` (stereo not drawn) [Example 1-213, 3-chloro-13-cyclohexyl-5-[2-(2-methylpiperidin-1-yl)ethyl]-6,7-dihydro-5H-benzo[5,6][1,4]diazepino[7,1-a]indole-10-carboxylic acid dihydrochloride] and `Cc1ccc2c(c1)N(CCC1CCCCC1)CCn1c-2c(C2CCCCC2)c2ccc(C(=O)O)cc21` [Example 1-492, 13-cyclohexyl-5-(2-cyclohexylethyl)-3-methyl-6,7-dihydro-5H-benzo[5,6][1,4]diazepino[7,1-a]indole-10-carboxylic acid] cannot be ordered by IC50: < 100 nM for the first, < 100 nM for the second.

Compared with `COC(=O)[C@H](CCCCNC(=O)OC(C)(C)C)NC(=O)c1ccc2c(C3CCCCC3)c3n(c2c1)CCOc1cc(OC)ccc1-3` [Example 2-309, methyl (S)-6-tert-butoxycarbonylamino-2-[(12-cyclohexyl-3-methoxy-6,7-dihydro-5-oxa-7a-azadibenzo[a,e]azulene-9-carbonyl)amino]hexanoate], `COc1ccc2c(c1)OCCn1c-2c(C2CCCCC2)c2ccc(C(=O)N[C@@H](Cc3ccc(O)cc3)C(=O)NCCO)cc21` [Example 2-387, N—[(S)-1-(2-hydroxyethylcarbamoyl)-2-(4-hydroxyphenyl)ethyl]-12-cyclohexyl-3-methoxy-6,7-dihydro-5-oxa-7a-azadibenzo[a,e]azulene-9-carboxamide] is lower in IC50: 100 to 1000 nM for the first, < 100 nM for the second. The second is the more potent here.

`CC(=O)N(C)CC[C@@H]1CCCN(CCN2CCn3c(c(C4CCCCC4)c4ccc(C(=O)O)cc43)-c3ccc(C)cc32)C1` [Example 1-553, 5-(2-{(S)-3-[2-(N-acetyl-N-methylamino)ethyl]piperidin-1-yl}ethyl)-13-cyclohexyl-3-methyl-6,7-dihydro-5H-benzo[5,6][1,4]diazepino[7,1-a]indole-10-carboxylic acid dihydrochloride] and `CC[C@H]1CCCN(CCN2CCn3c(c(C4CCCCC4)c4ccc(C(=O)O)cc43)-c3ccc(C)cc32)C1` [Example 1-422, 13-cyclohexyl-5-[2-((S)-3-ethylpiperidin-1-yl)ethyl]-3-methyl-6,7-dihydro-5H-benzo[5,6][1,4]diazepino[7,1-a]indole-10-carboxylic acid dihydrochloride] cannot be ordered by IC50: < 100 nM for the first, < 100 nM for the second.

First: CC(C)(CNC(=O)c1ccc(C(=O)O)cc1)NC(=O)c1ccc2c(C3CCCCC3)c3n(c2c1)CCOc1ccccc1-3 [Example 2-211, N-{2-[(12-cyclohexyl-6,7-dihydro-5-oxa-7a-azadibenzo[a,e]azulene-9-carbonyl)amino]-2-methylpropyl}terephthalamic acid]
Second: CC(C)(NC(=O)c1ccc2c(C3CCCCC3)c3n(c2c1)CCOc1ccccc1-3)C(=O)Nc1ccc(C(N)=O)cc1 [Example 2-193, N-[1-(4-carbamoylphenylcarbamoyl)-1-methylethyl]-12-cyclohexyl-6,7-dihydro-5-oxa-7a-azadibenzo[a,e]azulene-9-carboxamide]
The IC50 of the first is higher: 100 to 1000 nM for the first, < 100 nM for the second. The second is the more potent here.

`CCC1CCCN(CCN2CCn3c(c(C4CCCCC4)c4ccc(C(=O)O)cc43)-c3ccc(OCC(C)C)cc32)C1` (stereo not drawn) [Example 1-376, 13-cyclohexyl-5-[2-(3-ethylpiperidin-1-yl)ethyl]-3-isobutoxy-6,7-dihydro-5H-benzo[5,6][1,4]diazepino[7,1-a]indole-10-carboxylic acid dihydrochloride] and `CCc1ccc2c(c1)N(CCN1CCCC(COC)C1)CCn1c-2c(C2CCCCC2)c2ccc(C(=O)O)cc21` (stereo not drawn) [Example 1-366, 13-cyclohexyl-3-ethyl-5-[2-(3-methoxymethylpiperidin-1-yl)ethyl]-6,7-dihydro-5H-benzo[5,6][1,4]diazepino[7,1-a]indole-10-carboxylic acid dihydrochloride] cannot be ordered by IC50: < 100 nM for the first, < 100 nM for the second.

`CC(C)C1CCCN(CCN2CCn3c(c(C4CCCCC4)c4ccc(C(=O)O)cc43)-c3ccccc32)C1` (stereo not drawn) [Example 1-364, 13-cyclohexyl-5-[2-(3-isopropylpiperidin-1-yl)ethyl]-6,7-dihydro-5H-benzo[5,6][1,4]diazepino[7,1-a]indole-10-carboxylic acid dihydrochloride] and `CC(C)C1CCN(C(=O)CN2CCn3c(c(C4CCCCC4)c4ccc(C(=O)O)cc43)-c3ccccc32)CC1` [Example 1-124, 13-cyclohexyl-5-[2-(4-isopropylpiperidin-1-yl)-2-oxoethyl]-6,7-dihydro-5H-benzo[5,6][1,4]diazepino[7,1-a]indole-10-carboxylic acid monohydrochloride] cannot be ordered by IC50: < 100 nM for the first, < 100 nM for the second.

`CCOc1ccc2c(c1)N(C)CCn1c-2c(C2CCCCC2)c2ccc(C(=O)NC3(C(=O)Nc4ccc(C)c(/C=C/C(=O)O)c4)CCC3)cc21` [Example 1-620, (E)-3-[5-({1-[(13-cyclohexyl-3-ethoxy-5-methyl-6,7-dihydro-5H-benzo[5,6][1,4]diazepino[7,1-a]indole-10-carbonyl)amino]cyclobutanecarbonyl}amino)-2-methylphenyl]acrylic acid] and `O=C(NC1(C(=O)NC2(C(=O)O)CCC2)CCC1)c1ccc2c(C3CCCCC3)c3n(c2c1)CCOc1ccccc1-3` [Example 2-151, 1-({1-[(12-cyclohexyl-6,7-dihydro-5-oxa-7a-azadibenzo[a,e]azulene-9-carbonyl)amino]cyclobutanecarbonyl}amino)cyclobutanecarboxylic acid] cannot be ordered by IC50: < 100 nM for the first, < 100 nM for the second.

`CNC(=O)[C@H](Cc1ccc(O)cc1)NC(=O)c1ccc2c(C3CCCCC3)c3n(c2c1)CCOc1cc(OC)ccc1-3` [Example 2-263, N—[(S)-2-(4-hydroxyphenyl)-1-(methylcarbamoyl)ethyl]-12-cyclohexyl-3-methoxy-6,7-dihydro-5-oxa-7a-azadibenzo[a,e]azulene-9-carboxamide] and `COC(=O)Nc1ccc(C[C@H](NC(=O)c2ccc3c(C4CCCCC4)c4n(c3c2)CCOc2cc(OC)ccc2-4)c2csc(C)n2)cc1` [Example 2-415, methyl (4-[(S)-2-[(12-cyclohexyl-3-methoxy-6,7-dihydro-5-oxa-7a-azadibenzo[a,e]azulene-9-carbonyl)amino]-2-(2-methylthiazol-4-yl)ethyl]phenyl}carbamate] cannot be ordered by IC50: < 100 nM for the first, < 100 nM for the second.

`CCN(CCCN1CCn2c(c(C3CCCCC3)c3ccc(C(=O)O)cc32)-c2ccc(C)cc21)C(C)C` [Example 1-524, 13-cyclohexyl-5-[3-(N-ethyl-N-isopropylamino)propyl]-3-methyl-6,7-dihydro-5H-benzo[5,6][1,4]diazepino[7,1-a]indole-10-carboxylic acid dihydrochloride] and `Cc1ccc2c(c1)N(C)CCn1c-2c(C2CCCCC2)c2ccc(C(=O)O)cc21` [Example 1-574, 13-cyclohexyl-3,5-dimethyl-6,7-dihydro-5H-benzo[5,6][1,4]diazepino[7,1-a]indole-10-carboxylic acid] cannot be ordered by IC50: < 100 nM for the first, < 100 nM for the second.

`CCN1CCn2c(c(C3CCCCC3)c3ccc(C(=O)O)cc32)-c2ccc(OC)cc21` [Example 1-474, 13-cyclohexyl-5-ethyl-3-methoxy-6,7-dihydro-5H-benzo[5,6][1,4]diazepino[7,1-a]indole-10-carboxylic acid] and `COC1CCCN(CCN2CCn3c(c(C4CCCCC4)c4ccc(C(=O)O)cc43)-c3ccc(C)cc32)C1` (stereo not drawn) [Example 1-266, 13-cyclohexyl-5-[2-(3-methoxypiperidin-1-yl)ethyl]-3-methyl-6,7-dihydro-5H-benzo[5,6][1,4]diazepino[7,1-a]indole-10-carboxylic acid dihydrochloride] cannot be ordered by IC50: < 100 nM for the first, < 100 nM for the second.

`CN1CCn2c(c(C3CCCCC3)c3ccc(C(=O)O)cc32)-c2ccccc2C1` [Example 11-1, 14-cyclohexyl-6-methyl-5,6,7,8-tetrahydrobenzo[6,7][1,4]diazocino[8,1-a]indole-11-carboxylic acid monohydrochloride] and `O=C(O)c1ccc2c(C3CCCCC3)c3n(c2c1)CCN(CCc1cccnc1)c1ccccc1-3` [Example 1-181, 13-cyclohexyl-5-[2-(pyridin-3-yl)ethyl]-6,7-dihydro-5H-benzo[5,6][1,4]diazepino[7,1-a]indole-10-carboxylic acid dihydrochloride] cannot be ordered by IC50: < 100 nM for the first, < 100 nM for the second.

Compared with `COC(=O)Cn1c(CNC(=O)c2ccc3c(C4CCCCC4)c4n(c3c2)CCOc2ccccc2-4)nc2ccccc21` [Example 2-251, methyl (2-{[(12-cyclohexyl-6,7-dihydro-5-oxa-7a-azadibenzo[a,e]azulene-9-carbonyl)amino]methyl}benzimidazol-1-yl)acetate], `Cc1nc(C(C)(C)NC(=O)c2ccc3c(C4CCCCC4)c4n(c3c2)CCOc2ccccc2-4)n(CC(=O)O)c1C` [Example 2-265, (2-{1-[(12-cyclohexyl-6,7-dihydro-5-oxa-7a-azadibenzo[a,e]azulene-9-carbonyl)amino]-1-methylethyl}-4,5-dimethylimidazol-1-yl)acetic acid] is higher in IC50: < 100 nM for the first, 100 to 1000 nM for the second. The first is the more potent here.

`O=C(O)c1ccc2c(C3CCCCC3)c3n(c2c1)CCN(CCNCc1ccccn1)c1ccccc1-3` [Example 1-34, 13-cyclohexyl-5-{2-[(pyridin-2-ylmethyl)amino]ethyl}-6,7-dihydro-5H-benzo[5,6][1,4]diazepino[7,1-a]indole-10-carboxylic acid trihydrochloride] and `O=C(O)c1ccc2c(C3CCCCC3)c3n(c2c1)CCOc1c(-c2ccncc2)cccc1-3` [Example 2-299, 12-cyclohexyl-4-(pyridin-4-yl)-6,7-dihydro-5-oxa-7a-azadibenzo[a,e]azulene-9-carboxylic acid monohydrochloride] cannot be ordered by IC50: < 100 nM for the first, < 100 nM for the second.

`CC(C)(NC(=O)c1ccc2c(C3CCCCC3)c3n(c2c1)CCOc1ccccc1-3)C(=O)N1CCC(O)C1` (stereo not drawn) [Example 2-322, N-[2-(3-hydroxypyrrolidin-1-yl)-1,1-dimethyl-2-oxoethyl]-12-cyclohexyl-6,7-dihydro-5-oxa-7a-azadibenzo[a,e]azulene-9-carboxamide] was tested, and the IC50 was < 100 nM.
